Measurements published in ChEMBL document CHEMBL5380810, “Scaffold Hybrid of the Natural Product Tanshinone I with Piperidine for the Discovery of a Potent NLRP3 Inflammasome Inhibitor” (J Med Chem, 2023).
Values after ≈ are worked out from the molar mass of the structure shown. Active and inactive are the calls of the source. The rule behind the calls is not given here.

Tests used:
Mus musculus [1] = assay: Antiinflammatory activity in septic C57BL/6 mouse model assessed as reduction in LPS-induced inflammatory infiltration at 50 mg/kg, ip pretreated for 42 hrs followed by LPS injection measured after 6 hrs by H and E staining based analysis; assay type: functional, organism-based; settings: time 48.0 hrs
[2] = molecular target: NACHT, LRR and PYD domains-containing protein 3 (Mus musculus) (UniProt Q8R4B8); assay: Inhibition of NLRP3 inflammasome activation in […] LPS-primed mouse peritoneal macrophage cells assessed as inhibition of IL-1beta secretion at 2 uM treated for 3 hrs followed by nigericin addition measured after 30 mins by ELISA method; assay type: cell-based; settings: time 3.5 hrs
[3] = molecular target: NACHT, LRR and PYD domains-containing protein 3 (Mus musculus) (UniProt Q8R4B8); assay: Inhibition of NLRP3 inflammasome activation in LPS-stimulated mouse peritoneal macrophage assessed as inhibition of IL-1beta secretion at 2 uM treated for 3 hrs followed by ATP addition measured after 30 mins by Western blot analysis relative to control; assay type: cell-based; settings: time 3.5 hrs
Mus musculus [4] = assay: Antiinflammatory activity in septic C57BL/6 mouse model assessed as decrease in LPS-induced IL-6 release at 50 mg/kg, ip pretreated for 42 hrs followed by LPS injection measured after 6 hrs by ELISA method; assay type: functional, organism-based; settings: time 48.0 hrs
[5] = molecular target: NACHT, LRR and PYD domains-containing protein 3 (Mus musculus) (UniProt Q8R4B8); assay: Inhibition of NLRP3 inflammasome activation in […] LPS-primed mouse peritoneal macrophage cells assessed as inhibition of IL-1beta secretion at 2 uM treated for 3 hrs followed by MSU addition measured after 30 mins by ELISA method; assay type: cell-based; settings: time 3.5 hrs
[6] = molecular target: NACHT, LRR and PYD domains-containing protein 3 (Homo sapiens) (UniProt Q96P20); assay: Inhibition of NLRP3 (unknown origin) degradation at 10 uM incubated for 5 hrs followed by heat treatment for 3 mins by CETSA assay; settings: time 5.03 hrs
Mus musculus [7] = assay: Antiinflammatory activity in septic C57BL/6 mouse model assessed as reduction in LPS-induced granulocyte count at 50 mg/kg, ip pretreated for 42 hrs followed by LPS injection measured after 6 hrs by H and E staining based analysis; assay type: functional, organism-based; settings: time 48.0 hrs
Peritoneal macrophage [8] = assay: Effect on pro-IL-1beta expression in ATP-induced LPS-primed mouse peritoneal macrophage cells at 2 uM treated for 3 hrs followed by ATP addition measured after 30 mins by Western blot analysis; assay type: functional, cell-based; settings: time 3.5 hrs
Peritoneal macrophage [9] = assay: Effect on pro-caspase-1 expression in LPS-stimulated mouse peritoneal macrophage at 2 uM treated for 3 hrs followed by ATP addition measured after 30 mins by Western blot analysis; assay type: functional, cell-based; settings: time 3.5 hrs
Peritoneal macrophage [10] = assay: Effect on ASC expression in ATP-induced LPS-primed mouse peritoneal macrophage cells at 2 uM treated for 3 hrs followed by ATP addition measured after 30 mins by Western blot analysis; assay type: functional, cell-based; settings: time 3.5 hrs
Peritoneal macrophage [11] = assay: Antiinflammatory activity against LPS-stimulated mouse peritoneal macrophage assessed as inhibition of IL-1beta secretion at 1 uM treated for 3 hrs followed by ATP addition measured after 30 mins by ELISA method; assay type: functional, cell-based; settings: time 3.5 hrs
[12] = molecular target: NACHT, LRR and PYD domains-containing protein 3 (Mus musculus) (UniProt Q8R4B8); assay: Inhibition of NLRP3 inflammasome activation in LPS-stimulated mouse peritoneal macrophage assessed as inhibition of caspase-1 secretion at 2 uM treated for 3 hrs followed by ATP addition measured after 30 mins by Western blot analysis relative to control; assay type: cell-based; settings: time 3.5 hrs
Peritoneal macrophage [13] = assay: Effect on NLRP3 expression in ATP-induced LPS-primed mouse peritoneal macrophage cells at 2 uM treated for 3 hrs followed by ATP addition measured after 30 mins by Western blot analysis; assay type: functional, cell-based; settings: time 3.5 hrs
Mus musculus [14] = assay: Antiinflammatory activity in septic C57BL/6 mouse model assessed as reduction in LPS-induced alveolar wall thickening at 50 mg/kg, ip pretreated for 42 hrs followed by LPS injection measured after 6 hrs by H and E staining based analysis; assay type: functional, organism-based; settings: time 48.0 hrs
Peritoneal macrophage [15] = assay: Effect on pro-IL-1beta expression in LPS-stimulated mouse peritoneal macrophage at 2 uM treated for 3 hrs followed by ATP addition measured after 30 mins by Western blot analysis; assay type: functional, cell-based; settings: time 3.5 hrs
[16] = molecular target: NACHT, LRR and PYD domains-containing protein 3 (Mus musculus) (UniProt Q8R4B8); assay: Inhibition of NLRP3 inflammasome activation in ATP-induced LPS-primed mouse BMDM cells assessed as inhibition of IL-1beta secretion at 1 uM treated for 3 hrs followed by ATP addition measured after 30 mins by ELISA method; assay type: cell-based; settings: time 3.5 hrs
Mus musculus [17] = assay: Antiinflammatory activity in septic C57BL/6 mouse model assessed as decrease in LPS-induced IL-1beta release at 50 mg/kg, ip pretreated for 42 hrs followed by LPS injection measured after 6 hrs by ELISA method; assay type: functional, organism-based; settings: time 48.0 hrs
Peritoneal macrophage [18] = assay: Effect on pro-caspase-1 expression in ATP-induced LPS-primed mouse peritoneal macrophage cells at 2 uM treated for 3 hrs followed by ATP addition measured after 30 mins by Western blot analysis; assay type: functional, cell-based; settings: time 3.5 hrs
Peritoneal macrophage [19] = assay: Antiinflammatory activity against LPS-stimulated mouse peritoneal macrophage assessed as TNF-alpha level at 2 uM treated for 3 hrs followed by ATP addition measured after 30 mins by ELISA method relative to control; assay type: functional; settings: time 3.5 hrs
Peritoneal macrophage [20] = assay: Antiinflammatory activity against LPS-stimulated mouse peritoneal macrophage assessed as IL-1beta level at 2 uM treated for 3 hrs followed by ATP addition measured after 30 mins by ELISA method; assay type: functional, cell-based; settings: time 3.5 hrs
Peritoneal macrophage [21] = assay: Cytotoxicity against mouse peritoneal macrophages at 4 uM incubated for 3.5 hrs by MTT assay; assay type: toxicity, cell-based
Peritoneal macrophage [22] = assay: Antiinflammatory activity against LPS-stimulated mouse peritoneal macrophage assessed as IL-6 level at 2 uM treated for 3 hrs followed by ATP addition measured after 30 mins by ELISA method relative to control; assay type: functional; settings: time 3.5 hrs
[23] = Aqueous solubility of compound incubated for 24 hrs by HPLC analysis; assay type: physicochemical; settings: buffer
[24] = Metabolic stability in human liver microsomes assessed as half life at 20 uM measured upto 120 mins in presence of NADPH by LC-MS/MS analysis; assay type: ADME, Microsome
[25] = Metabolic stability in mouse liver microsomes assessed as half life at 20 uM measured upto 120 mins in presence of NADPH by LC-MS/MS analysis; assay type: ADME, Microsome
Peritoneal macrophage [26] = assay: Antiinflammatory activity against LPS-stimulated mouse peritoneal macrophage assessed as IL-1beta level at 2 uM treated for 3 hrs followed by ATP addition measured after 30 mins by ELISA method relative to control; assay type: functional; settings: time 3.5 hrs
[27] = molecular target: NACHT, LRR and PYD domains-containing protein 3 (Mus musculus, UniProt Q8R4B8); assay: Binding affinity to CMS sensor chip immobilized His-SUMO-tagged mouse NLRP3 expressed in Escherichia coli assessed as dissociation constant by SPR analysis
[28] = Metabolic stability in mouse liver microsomes assessed as intrinsic clearance at 20 uM measured upto 120 mins in presence of NADPH by LC-MS/MS analysis; assay type: ADME, Microsome; settings: read-out: CLH
[29] = Metabolic stability in human liver microsomes assessed as intrinsic clearance at 20 uM measured upto 120 mins in presence of NADPH by LC-MS/MS analysis; assay type: ADME, Microsome; settings: read-out: CLH
Peritoneal macrophage [30] = assay: Antiinflammatory activity against LPS-stimulated mouse peritoneal macrophage assessed as inhibition of IL-1beta secretion treated for 3 hrs followed by ATP addition measured after 30 mins by ELISA method; assay type: functional, cell-based
Peritoneal macrophage [31] = assay: Antiinflammatory activity against LPS-stimulated mouse peritoneal macrophage assessed as IL-6 level at 2 uM treated for 3 hrs followed by ATP addition measured after 30 mins by ELISA method; assay type: functional, cell-based; settings: time 3.5 hrs

Chain of NACHT, LRR and PYD domains-containing protein 3 (Mus musculus) (Q8R4B8 whole entry, the tested form may be a part): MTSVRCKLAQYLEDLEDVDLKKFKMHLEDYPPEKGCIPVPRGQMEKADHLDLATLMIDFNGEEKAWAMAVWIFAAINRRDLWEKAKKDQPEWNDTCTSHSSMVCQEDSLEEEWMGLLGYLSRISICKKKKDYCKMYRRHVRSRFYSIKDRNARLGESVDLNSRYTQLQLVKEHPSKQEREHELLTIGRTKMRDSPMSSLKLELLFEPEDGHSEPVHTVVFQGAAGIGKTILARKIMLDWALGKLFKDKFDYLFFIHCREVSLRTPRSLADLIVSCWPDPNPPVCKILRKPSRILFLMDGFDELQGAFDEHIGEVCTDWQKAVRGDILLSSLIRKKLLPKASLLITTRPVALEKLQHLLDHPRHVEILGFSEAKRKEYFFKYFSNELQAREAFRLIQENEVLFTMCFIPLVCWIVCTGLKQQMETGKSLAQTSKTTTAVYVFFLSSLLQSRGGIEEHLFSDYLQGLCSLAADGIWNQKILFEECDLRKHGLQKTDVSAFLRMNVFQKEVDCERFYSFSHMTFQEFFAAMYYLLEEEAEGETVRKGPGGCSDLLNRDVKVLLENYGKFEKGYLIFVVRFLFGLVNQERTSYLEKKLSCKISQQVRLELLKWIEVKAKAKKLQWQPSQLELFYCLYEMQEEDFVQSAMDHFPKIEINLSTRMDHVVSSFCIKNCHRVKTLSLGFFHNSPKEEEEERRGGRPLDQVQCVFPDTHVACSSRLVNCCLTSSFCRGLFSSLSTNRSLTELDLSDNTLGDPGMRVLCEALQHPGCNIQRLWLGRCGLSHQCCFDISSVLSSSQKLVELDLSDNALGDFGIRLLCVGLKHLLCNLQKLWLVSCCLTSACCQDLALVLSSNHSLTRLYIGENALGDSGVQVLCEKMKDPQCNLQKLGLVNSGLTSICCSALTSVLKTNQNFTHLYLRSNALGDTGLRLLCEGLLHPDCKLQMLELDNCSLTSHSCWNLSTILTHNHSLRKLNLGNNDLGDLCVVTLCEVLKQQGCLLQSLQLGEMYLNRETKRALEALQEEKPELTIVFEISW
Chain of NACHT, LRR and PYD domains-containing protein 3 (Q8R4B8 whole entry, the tested form may be a part): as above
Chain of NACHT, LRR and PYD domains-containing protein 3 (Homo sapiens) (Q96P20 whole entry, the tested form may be a part): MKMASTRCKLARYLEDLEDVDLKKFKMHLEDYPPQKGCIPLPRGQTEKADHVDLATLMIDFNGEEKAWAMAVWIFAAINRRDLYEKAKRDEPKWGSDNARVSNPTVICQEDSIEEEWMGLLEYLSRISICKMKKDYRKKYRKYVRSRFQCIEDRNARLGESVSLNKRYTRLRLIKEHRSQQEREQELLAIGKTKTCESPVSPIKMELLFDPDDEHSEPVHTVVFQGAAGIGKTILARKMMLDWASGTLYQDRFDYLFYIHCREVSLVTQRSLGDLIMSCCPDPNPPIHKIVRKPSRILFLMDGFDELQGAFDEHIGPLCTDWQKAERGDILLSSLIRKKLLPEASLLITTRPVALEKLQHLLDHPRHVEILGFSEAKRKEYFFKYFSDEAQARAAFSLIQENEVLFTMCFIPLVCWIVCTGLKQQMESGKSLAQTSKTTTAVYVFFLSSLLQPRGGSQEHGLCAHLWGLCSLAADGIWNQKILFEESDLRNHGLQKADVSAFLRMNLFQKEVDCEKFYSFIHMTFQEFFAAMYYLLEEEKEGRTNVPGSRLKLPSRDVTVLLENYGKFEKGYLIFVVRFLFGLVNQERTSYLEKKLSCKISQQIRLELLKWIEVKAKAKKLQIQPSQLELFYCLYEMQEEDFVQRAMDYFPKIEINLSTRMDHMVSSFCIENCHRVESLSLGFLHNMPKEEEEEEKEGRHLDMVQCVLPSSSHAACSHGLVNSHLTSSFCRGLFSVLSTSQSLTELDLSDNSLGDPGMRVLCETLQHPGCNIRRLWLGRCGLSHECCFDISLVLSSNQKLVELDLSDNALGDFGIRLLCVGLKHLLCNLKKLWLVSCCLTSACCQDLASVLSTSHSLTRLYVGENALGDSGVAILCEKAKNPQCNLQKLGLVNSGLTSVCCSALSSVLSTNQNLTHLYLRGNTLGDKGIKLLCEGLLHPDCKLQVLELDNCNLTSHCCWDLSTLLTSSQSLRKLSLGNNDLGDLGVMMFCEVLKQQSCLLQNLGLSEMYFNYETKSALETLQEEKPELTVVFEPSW

Compound	inhibition [2]	inhibition [3]	inhibition [5]	inhibition [12]	inhibition [16]	Activity (Mus musculus [1])	Activity (Mus musculus [4])	Activity (Mus musculus [7])	Activity (Peritoneal macrophage [8])	Activity (Peritoneal macrophage [9])	Activity (Peritoneal macrophage [10])	inhibition (Peritoneal macrophage [11])	Activity (Peritoneal macrophage [13])	Activity (Mus musculus [14])	Activity (Peritoneal macrophage [15])	Activity (Mus musculus [17])	Activity (Peritoneal macrophage [18])	Activity (Peritoneal macrophage [19])	Activity (Peritoneal macrophage [21])	other results
Cc1coc2c1C(=O)C(=O)c1c-2ccc2c1CCCC2(C)C [TANSHINONE IIA]																		19%	Non-Toxic	Activity (Peritoneal macrophage [20]): inactive; Activity (Peritoneal macrophage [22]): 16%
Cc1cccc2c3c(ccc12)-c1oc2c(c1C(=O)C3=O)CCN(CCCN1CCOCC1)C2 [listing 2 of 2 here]																		41%	Non-Toxic	solubility [23]: 0.03 µg/mL (≈ 0.0675 µM); half-life at 20 µM [24]: 14.4 h; half-life at 20 µM [25]: 3.04 h; Activity (Peritoneal macrophage [26]): 97%; Kd [27]: 5.87 µM; microsomal CLint at 20 µM [28]: 7.6 µL/min/mg; microsomal CLint at 20 µM [29]: 1.6 µL/min/mg; IC50 (Peritoneal macrophage [30]): 0.131 µM
Cc1cccc2c3c(ccc12)-c1oc2c(c1C(=O)C3=O)CCN(CCO)C2	Active	100%	Active	100%	Active	Active	Active	Active	inactive	inactive	inactive	Active	inactive	Active	inactive	Active	inactive			Activity (Peritoneal macrophage [31]): inactive

More lines, main results first:

inhibition [2]	inhibition [3]	inhibition [5]	inhibition [12]	inhibition [16]	Compound	Activity (Mus musculus [1])	Activity (Mus musculus [4])	Activity (Mus musculus [7])	Activity (Peritoneal macrophage [8])	Activity (Peritoneal macrophage [9])	Activity (Peritoneal macrophage [10])	inhibition (Peritoneal macrophage [11])	Activity (Peritoneal macrophage [13])	Activity (Mus musculus [14])	Activity (Peritoneal macrophage [15])	Activity (Mus musculus [17])	Activity (Peritoneal macrophage [18])	Activity (Peritoneal macrophage [19])	Activity (Peritoneal macrophage [21])	other results
Active	100%	Active	100%	Active	Cc1cccc2c3c(ccc12)-c1oc2c(c1C(=O)C3=O)CCN(CCCN1CCOCC1)C2 [listing 1 of 2 here]	Active	Active	Active	inactive	inactive	inactive	Active	inactive	Active	inactive	Active	inactive			inhibition [6]: Active
Active	100%	Active	100%	Active	Cc1cccc2c3c(ccc12)-c1oc2c(c1C(=O)C3=O)CCN([C@H](CO)CCCO)C2	Active	Active	Active	inactive	inactive	inactive	Active	inactive	Active	inactive	Active	inactive			
